In patent US6548530B1, “CBI analogs of CC-1065 and the duocarmycins” (The Scripps Research Institute, priority 1995, dated 2003):
Read-outs that look alike come from different tables or passages of the source.

Columns and labels:
[1] = system: L1210; test: in vitro cytotoxic activity (L1210)
[2] = system: double-stranded DNA (clone w794); test: DNA alkylation of 5′ end-labeled duplex DNA (thermally-induced strand cleavage, PAGE, autoradiography); type: biochemical; settings: for DNA alkylation efficiency, fold less efficient than (+)-CBI-CDPI1 (26): natural enantiomers
Protocol: FIG. 21 illustrates the thermally-induced strand cleavage of double-stranded DNA (144 bp, nucleotide no. 138-5238, clone w794) after 24 h incubation of agent-DNA at 4° C. followed by removal of unbound agent and 30 inutes incubation at 100° C.; denaturing 8% polyacrylamide gel and autoradiography. Lanes 1-4, Sanger G,C,A, and T sequencing reactions; lane 5, control labeled w794 DNA; lanes 6-8, (+)-CPI-indole2 ((+)-4, 1×10^−4-1×10^−6 M); lanes 9-11, (+)-CBI-indole2 ((+)-27, 1×10^−5-1×10^−7 M).
FIG. 22 illustrates the thermally-induced strand clealvage of 5′ end-labeled duplex DNA (clone w794, 144 bp, nucleotide no 138-5238). Incubation of agent-DNA at 25° C. (24 h) followed by removal of unbound agent and 30 min thermolysis at 100° C., denaturing 8% PAGE, and autoradiography. Lanes 1-2, ent-(−)-duocarmycin SA ((−)-2, 1×10^−6 and 1×10^−7 M); lanes 3-5, (+)-duocarmycin SA, ((+)-2, 1×10^−6-1×10^−8 M); lanes 6-9, G, C, A and T sequencing reactions; lane 10, control labeled w794 DNA; lanes 11-13, (+)-CBI-TMI ((+)-29, 1×10^−6-1×10^−8 M); lanes 14-15, ent-(−)-CBI-TMI ((−)-29, 1×10^−5 and 1×10^−6 M).
FIGS. 23A-23B represent the following: Top: Plot of % integrated optical density (% IOD) versus time established through autoradiography of 5′ ^32P end-labeled DNA and used to monitor the relative rate of w794 alkylation at the 5′-AATTA high affinity site for (+)-CBI-indole2 (27) and (+)-CPI-indole2 (4); 37° C., 0-5 d, 1×10^−5 M agent. Bottom: Plot of % integrated optical density (% IOD) versus time established through autoradiography of 5′ ^32P end-labeled DNA and used to monitor the relative rate of w794 alkylation at the 5′-AATTA high affinity site for (+)-duocarmycin SA (2) and (+)-CBI-TMI (29); 4° C., 0-24 h, 1×10^−6 M agent.
DNA Alkylation Studies. General procedures, the preparation of singly ^32P 5′ end-labeled double-stranded DNA, the agent binding studies, gel electrophoresis, and autoradiography were conducted according to procedures described in full detail elsewhere. (Boger et. al Tetrahedron 1991, 47, 2661). Eppendorf tubes containing the 5′ end-labeled DNA (9 μL, w794 and w836) in TE buffer (10 mM Tris, 1 mM EDTA, pH 7.5) were treated with the agent DIMETHYLSULFOXIDE (1 μL at the specified concentration). The solution was mixed by vortexing and brief centrifugation and subsequently incubated at 25° C. for 3 days. The covalently modified DNA was separated from unbound agent by Ethanol precipitation and resuspended in TE buffer (10 μL). The solution of DNA in an Eppendorf tube sealed with parafilm was heated at 100° C. for 30 min to induce cleavage at the alkylation sites, allowed to cool to 25° C. and centrifuged. Formamide dye (0.33% xylene cyanol FF, 0.03% bromophenol blue, 8.7% Na2EDTA 250 mM) was added (5 μL) to the supernatant. Prior to electrophoresis, the sample was denatured by warming at 100° C. for 5 min, placed in an ice bath, and centrifuged, before the supernatant (3 μL) was loaded directly onto the gel. Sanger dideoxynucleotide sequencing reactions were run as standards adjacent to the reaction samples. Polyacrylamide gel electrophoresis (PAGE) was run on an 8% sequencing gel under denaturing conditions (8 M urea) in TBE buffer (100 mM Tris, 100 mM boric acid, 0.2 mM Na2EDTA) followed by autoradiography.
DNA Alkylation Studies of 2-5: Selectivity and Efficiency. Eppendorf tubes containing singly ^32P 5′-end-labeled double-stranded DNA^10 (9 μL) in TE buffer (10 mM Tris, 1 mM EDTA, pH 7.5) were treated with the agents 190-196 in DIMETHYLSULFOXIDE (1 μL, at the specified concentrations). The solutions were mixed by vortexing and brief centrifugation and subsequently incubated at 4° C. for 24 h. The covalently modified DNA was separated from unbound agent by Ethanol precipitation of the DNA. The Ethanol precipitations were carried out by adding t-RNA as a carrier (1 μL, 10 1μg/μL), a buffer solution containing salt (0.1 volume, 3 M NaOAc in TE) and −20° C. Ethanol (2.5 volumes). […]

[3] = in vivo; cited from earlier work
[4] = (+)-enantiomer; cited from earlier work
[5] = system: L1210; settings: cited from earlier work
[6] = solubility properties; type: physicochemical; settings: polar protic or aprotic solvents, water, nonpolar solvents
[7] = Mus musculus, L1210, read-out: cytotoxic potency

## NC(=O)N1CCc2c1ccc1oc(C(=O)N3C[C@H]4CC45C3=CC(=O)c3ccccc35)nc21 (some centres unmarked) [Compound 62, CBI-CDPBO1]
[1]; [7]
  IC50: 0.5 to 1 nM
[2]
  DNA alkylation efficiency, fold less efficient than (+)-CBI-CDPI1 (26): approximately 100 ×

## O=C(Nc1ccc2[nH]c(C(=O)N3CC4CC45C3=CC(=O)c3ccccc35)cc2c1)c1cc2ccccc2[nH]1 (centres unmarked) [Compound 27]
[3]
  delayed toxicity: lacked the delayed fatal toxicity
[1]; (+)-enantiomer
  cytotoxic potency compared with (+)-CC-1065: comparable
  cytotoxic potency, fold greater than (+)-CPI-indole2 (4, U71,184): 4 ×
[4]
  in vivo antitumor activity: potent and efficacious
[2]; single high affinity site (5′-AATTA) of w794 DNA, 37° C., 0-5 d, 1×10^−5 M agent
  relative rate of DNA alkylation k(27)/k(4): 14
[2]; w794, 4° C. or 37° C., (+)-enantiomers
  DNA alkylation efficiency, fold more efficient than (+)-CPI-indole2 (4): 10 ×

## COc1cc2cc(C(=O)N3CC4CC45C3=CC(=O)c3ccccc35)[nH]c2c(OC)c1OC (centres unmarked) [Compound 29, CBI-TMI]
[2]; 5′-AATTA high affinity site of w794 DNA, 4° C., 0-24 h, 1×10^−6 M agent
  relative rate of DNA alkylation k(29)/k(2): 0.9

## (+)-CPI-PDE-I1 [reference compound]
[1]; L1210
  IC50: 0.02 nM

## NC(=O)N1CCc2c1ccc1[nH]c(C(=O)N3C[C@H]4CC45C3=CC(=O)c3ccccc35)nc21 (some centres unmarked) [Compound 64, N^2-[(3′-carbamoyl-1′,2′-dihydro-3′H-pyrrolo[3′,2′-e]benzimidazol-7′-yl)carbonyl]-1,2,9,9a-tetrahydro-cyclopropa-[c]-enz[e]-indol-4-one]
[1]; [7]
  IC50: 0.5 to 1 nM
[2]
  DNA alkylation efficiency, fold less efficient than (+)-CBI-CDPI1 (26): approximately 100 ×

## COc1c(O)c2c(c3cc(C(=O)N4CCc5c4c(O)c(OC)c4[nH]c(C(=O)N6CC7CC78C6=CC(=O)c6[nH]cc(C)c68)cc54)[nH]c13)CCN2C(N)=O (stereo not drawn) [ent-(−)-CC-1065]
[3]
  delayed toxicity: has not been observed
[5]
  cytotoxicity compared with natural (+)-CC-1065: equally cytotoxic

## COc1c(O)c2c(c3cc(C(=O)N4CCc5c4c(O)c(OC)c4[nH]c(C(=O)N6C[C@H]7C[C@@]78C6=CC(=O)c6[nH]cc(C)c68)cc54)[nH]c13)CCN2C(N)=O [(+)-CC-1065, CC-1065]
[3]
  delayed toxicity: exhibited the delayed toxicity
[1]; L1210
  IC50: 0.02 nM
[6]
  solubility: essentially insoluble in all solvents except DMSO or DMF

## NC(=O)N1CCc2c1ccc1[nH]c(C(=O)N3C[C@H]4C[C@@]45C3=CC(=O)c3ccccc35)cc21 [Compound 26, CBI-CDPI1]
[2]; (+)-enantiomer
  DNA alkylation selectivity (sequence): 5′-A/TA/TA/TA
[2]; ent-(−)-enantiomer
  DNA alkylation selectivity (sequence): 5′-A/TAA/TA/T

## Cc1c[nH]c2c1[C@@]13C[C@@H]1CN(C(=O)c1cc4c5c(ccc4[nH]1)N(C(=O)c1cc4c6c(ccc4[nH]1)N(C(N)=O)CC6)CC5)C3=CC2=O [(+)-CPI-CDPI2]
[3]
  delayed toxicity: exhibited the delayed toxicity

## Cl.NNC(=O)N1CC(CCl)c2c1cc(O)c1ccccc21 (centres unmarked) [Compound 73, 1-(Chloromethyl)-3-(hydrazino)carbonyl-5hydroxy-1,2-dihydro-3H-benz[e]indole hydrochloride]
[1]
  in vitro cytotoxic activity compared with N-BOC-CBI (9): more potent
[1]; free semicarbazide versus 72
  in vitro cytotoxic activity, fold more potent than tert-butylcarbazate precursor 72: ca. 100 ×
[1]; seco precursor with free amine
  in vitro cytotoxic activity, fold less potent than (+)-CC-1065: 100 ×
